{"source": "PubChem BioAssay (NCI)", "assay_in_all_cases": "DTP human tumour cell line panel, 48 h", "key": {"786-0 renal": {"tested_on": "786-0 renal"}, "A498 renal": {"tested_on": "A498 renal"}, "A549 NSCLC": {"tested_on": "A549 NSCLC"}, "ACHN renal": {"tested_on": "ACHN renal"}, "BT-549 breast": {"tested_on": "BT-549 breast"}, "CAKI-1 renal": {"tested_on": "CAKI-1 renal"}, "CCRF-CEM leukemia": {"tested_on": "CCRF-CEM leukemia"}, "COLO 205 colon": {"tested_on": "COLO 205 colon"}, "DU-145 prostate": {"tested_on": "DU-145 prostate"}, "EKVX NSCLC": {"tested_on": "EKVX NSCLC"}, "HCC-2998 colon": {"tested_on": "HCC-2998 colon"}, "HCT-116 colon": {"tested_on": "HCT-116 colon"}, "HCT-15 colon": {"tested_on": "HCT-15 colon"}, "HL-60(TB) leukemia": {"tested_on": "HL-60(TB) leukemia"}, "HOP-62 NSCLC": {"tested_on": "HOP-62 NSCLC"}, "HOP-92 NSCLC": {"tested_on": "HOP-92 NSCLC"}, "HS 578T breast": {"tested_on": "HS 578T breast"}, "HT29 colon": {"tested_on": "HT29 colon"}, "IGROV1 ovarian": {"tested_on": "IGROV1 ovarian"}, "K-562 leukemia": {"tested_on": "K-562 leukemia"}, "KM12 colon": {"tested_on": "KM12 colon"}, "LOX IMVI melanoma": {"tested_on": "LOX IMVI melanoma"}, "M14 melanoma": {"tested_on": "M14 melanoma"}, "MALME-3M melanoma": {"tested_on": "MALME-3M melanoma"}, "MCF7 breast": {"tested_on": "MCF7 breast"}, "MDA-MB-231 breast": {"tested_on": "MDA-MB-231 breast"}, "MDA-MB-435": {"tested_on": "MDA-MB-435"}, "MDA-N": {"tested_on": "MDA-N"}, "MOLT-4 leukemia": {"tested_on": "MOLT-4 leukemia"}, "NCI-H226 lung": {"tested_on": "NCI-H226 lung"}, "NCI-H23 lung": {"tested_on": "NCI-H23 lung"}, "NCI-H460 lung": {"tested_on": "NCI-H460 lung"}, "NCI-H522 lung": {"tested_on": "NCI-H522 lung"}, "NCI/ADR-RES ovarian": {"tested_on": "NCI/ADR-RES ovarian"}, "OVCAR-3 ovarian": {"tested_on": "OVCAR-3 ovarian"}, "OVCAR-4 ovarian": {"tested_on": "OVCAR-4 ovarian"}, "OVCAR-5 ovarian": {"tested_on": "OVCAR-5 ovarian"}, "OVCAR-8 ovarian": {"tested_on": "OVCAR-8 ovarian"}, "PC-3 prostate": {"tested_on": "PC-3 prostate"}, "RPMI-8226 leukemia": {"tested_on": "RPMI-8226 leukemia"}, "RXF 393 renal": {"tested_on": "RXF 393 renal"}, "SF-268 CNS": {"tested_on": "SF-268 CNS"}, "SF-295 CNS": {"tested_on": "SF-295 CNS"}, "SF-539 CNS": {"tested_on": "SF-539 CNS"}, "SK-MEL-2 melanoma": {"tested_on": "SK-MEL-2 melanoma"}, "SK-MEL-28 melanoma": {"tested_on": "SK-MEL-28 melanoma"}, "SK-MEL-5 melanoma": {"tested_on": "SK-MEL-5 melanoma"}, "SK-OV-3 ovarian": {"tested_on": "SK-OV-3 ovarian"}, "SN12C renal": {"tested_on": "SN12C renal"}, "SNB-19 CNS": {"tested_on": "SNB-19 CNS"}, "SNB-75 CNS": {"tested_on": "SNB-75 CNS"}, "SR leukemia": {"tested_on": "SR leukemia"}, "SW-620 colon": {"tested_on": "SW-620 colon"}, "T-47D breast": {"tested_on": "T-47D breast"}, "TK-10 renal": {"tested_on": "TK-10 renal"}, "U251 CNS": {"tested_on": "U251 CNS"}, "UACC-257 melanoma": {"tested_on": "UACC-257 melanoma"}, "UACC-62 melanoma": {"tested_on": "UACC-62 melanoma"}, "UO-31 renal": {"tested_on": "UO-31 renal"}}, "note": "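In this assay, cells in 96-well plates receive the compound at five concentrations for 48 hours. Endpoints are linearly interpolated between the surrounding concentrations. TGI marks complete inhibition of growth.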", "data": [{"smiles": "CN(CCCCN1CCCC1)CCCCN(C)C(=O)Cc1ccc(Cl)c(Cl)c1", "values": [{"measurement": "TGI", "setting": "786-0 renal", "result": 25.7, "unit": "µM"}, {"measurement": "TGI", "setting": "A498 renal", "result": 32.4, "unit": "µM"}, {"measurement": "TGI", "setting": "A549 NSCLC", "result": 31.2, "unit": "µM"}, {"measurement": "TGI", "setting": "ACHN renal", "result": 57.1, "unit": "µM"}, {"measurement": "TGI", "setting": "BT-549 breast", "result": 36.7, "unit": "µM"}, {"measurement": "TGI", "setting": "CAKI-1 renal", "result": 39.2, "unit": "µM"}, {"measurement": "TGI", "setting": "CCRF-CEM leukemia", "result": 20.7, "unit": "µM"}, {"measurement": "TGI", "setting": "COLO 205 colon", "result": 27.4, "unit": "µM"}, {"measurement": "TGI", "setting": "DU-145 prostate", "result": 72, "unit": "µM"}, {"measurement": "TGI", "setting": "EKVX NSCLC", "result": 37, "unit": "µM"}, {"measurement": "TGI", "setting": "HCC-2998 colon", "result": 18.5, "unit": "µM"}, {"measurement": "TGI", "setting": "HCT-116 colon", "result": 29.3, "unit": "µM"}, {"measurement": "TGI", "setting": "HCT-15 colon", "result": 50, "unit": "µM"}, {"measurement": "TGI", "setting": "HL-60(TB) leukemia", "result": 36.1, "unit": "µM"}, {"measurement": "TGI", "setting": "HOP-62 NSCLC", "result": 34.8, "unit": "µM"}, {"measurement": "TGI", "setting": "HOP-92 NSCLC", "result": 17.5, "unit": "µM"}, {"measurement": "TGI", "setting": "HS 578T breast", "result": 54.5, "unit": "µM"}, {"measurement": "TGI", "setting": "HT29 colon", "result": 15.4, "unit": "µM"}, {"measurement": "TGI", "setting": "IGROV1 ovarian", "result": 37, "unit": "µM"}, {"measurement": "TGI", "setting": "K-562 leukemia", "result": 10.5, "unit": "µM"}, {"measurement": "TGI", "setting": "KM12 colon", "result": 26.1, "unit": "µM"}, {"measurement": "TGI", "setting": "LOX IMVI melanoma", "result": 25.2, "unit": "µM"}, {"measurement": "TGI", "setting": "M14 melanoma", "result": 35.7, "unit": "µM"}, {"measurement": "TGI", "setting": "MALME-3M melanoma", "result": 34.4, "unit": "µM"}, {"measurement": "TGI", "setting": "MCF7 breast", "result": 28.3, "unit": "µM"}, {"measurement": "TGI", "setting": "MDA-MB-231 breast", "result": 23.5, "unit": "µM"}, {"measurement": "TGI", "setting": "MDA-MB-435", "result": 5.3, "unit": "µM"}, {"measurement": "TGI", "setting": "MDA-N", "result": 12.2, "unit": "µM"}, {"measurement": "TGI", "setting": "MOLT-4 leukemia", "result": 22.1, "unit": "µM"}, {"measurement": "TGI", "setting": "NCI-H226 lung", "result": 41.8, "unit": "µM"}, {"measurement": "TGI", "setting": "NCI-H23 lung", "result": 37.3, "unit": "µM"}, {"measurement": "TGI", "setting": "NCI-H460 lung", "result": 30.6, "unit": "µM"}, {"measurement": "TGI", "setting": "NCI-H522 lung", "result": 27.7, "unit": "µM"}, {"measurement": "TGI", "setting": "NCI/ADR-RES ovarian", "result": "> 100", "unit": "µM"}, {"measurement": "TGI", "setting": "OVCAR-3 ovarian", "result": 44.5, "unit": "µM"}, {"measurement": "TGI", "setting": "OVCAR-4 ovarian", "result": 33.9, "unit": "µM"}, {"measurement": "TGI", "setting": "OVCAR-5 ovarian", "result": 41.2, "unit": "µM"}, {"measurement": "TGI", "setting": "OVCAR-8 ovarian", "result": 64.9, "unit": "µM"}, {"measurement": "TGI", "setting": "PC-3 prostate", "result": 36.4, "unit": "µM"}, {"measurement": "TGI", "setting": "RPMI-8226 leukemia", "result": 23.9, "unit": "µM"}, {"measurement": "TGI", "setting": "RXF 393 renal", "result": 25.9, "unit": "µM"}, {"measurement": "TGI", "setting": "SF-268 CNS", "result": 39.8, "unit": "µM"}, {"measurement": "TGI", "setting": "SF-295 CNS", "result": 38, "unit": "µM"}, {"measurement": "TGI", "setting": "SF-539 CNS", "result": 23.3, "unit": "µM"}, {"measurement": "TGI", "setting": "SK-MEL-2 melanoma", "result": 19.7, "unit": "µM"}, {"measurement": "TGI", "setting": "SK-MEL-28 melanoma", "result": 3.88, "unit": "µM"}, {"measurement": "TGI", "setting": "SK-MEL-5 melanoma", "result": 19.9, "unit": "µM"}, {"measurement": "TGI", "setting": "SK-OV-3 ovarian", "result": 47.2, "unit": "µM"}, {"measurement": "TGI", "setting": "SN12C renal", "result": 36.8, "unit": "µM"}, {"measurement": "TGI", "setting": "SNB-19 CNS", "result": 36.8, "unit": "µM"}, {"measurement": "TGI", "setting": "SNB-75 CNS", "result": 32.8, "unit": "µM"}, {"measurement": "TGI", "setting": "SR leukemia", "result": 14.3, "unit": "µM"}, {"measurement": "TGI", "setting": "SW-620 colon", "result": 38.4, "unit": "µM"}, {"measurement": "TGI", "setting": "T-47D breast", "result": 40.7, "unit": "µM"}, {"measurement": "TGI", "setting": "TK-10 renal", "result": 32.6, "unit": "µM"}, {"measurement": "TGI", "setting": "U251 CNS", "result": 27.8, "unit": "µM"}, {"measurement": "TGI", "setting": "UACC-257 melanoma", "result": 6.22, "unit": "µM"}, {"measurement": "TGI", "setting": "UACC-62 melanoma", "result": 12.3, "unit": "µM"}, {"measurement": "TGI", "setting": "UO-31 renal", "result": 3.31, "unit": "µM"}]}]}
